Key:
Type in all cases: in vivo
[1] = tested on: C57BLKS/J-db/db mice; assay: Change in glycated hemoglobin of db/db mouse; conditions: average; for Glycated hemoglobin (HbAlc, %), before administration: 300 mg/kg group, before administration (baseline); for Glycated hemoglobin (HbAlc, %), 29th day after administration / Glycated hemoglobin (HbAlc, %), 43rd day after administration: 300 mg/kg
Experimental: (§1) Specifically, 5-week-old male C57BLKS/J-db/db mice (Central Lab. Animal Inc., Korea) were purchased and acclimatized for 2 weeks, and then used in the present experiment. The R-enantiomer (Compound 3a) and the S-enantiomer (Compound 3b) prepared in Example 2 were weighed (CP423S, Sartorius, Germany) according to the administration dose and put into 50 ml tubes, an excipient (10% LM 2125 CS MCT solution) stored at room temperature was added thereto, and then the resulting mixture was stirred by means of a vortex mixer so as to dissolve the excipient. Thereafter, the solution was ultrasonically treated for about 10 minutes, and a stock solution was prepared by formulating the solution at a predetermined concentration. A 0.5% aqueous MC solution as an excipient was added to the prepared stock solution, the resulting mixture was gently stirred by means of a vortex mixer, homogenized and prepared by means of a homogenizer (PT-1600E, Kinematica, Switzerland) at 30,000 rpm for 3 minutes, and then a solution was prepared at a final predetermined concentration by performing ultrasonic wave treatment for 30 minutes. The sample thus prepared was administered through the oral gavage once daily for 6 weeks by using a disposable plastic syringe with a zonde for oral administration attached.
By using the same method as in Experimental Example 3, a racemic compound of Compound 1, Compound 1a being an R-enantiomer, a racemic compound of Compound 3 prepared in Example 2 and Compound 3a being an R-enantiomer were administered to the C57BLKS/J-db/db mice, and then the anti-diabetes effects were confirmed.
The following Table 5 is a result of measuring a change in glycated hemoglobin of the db/db mouse according to the administration of the normal group, the negative control the racemic compound of Compound 1, Compound 1a being the R-enantiomer, the racemic Compound of Compound 3 prepared in Example 2 and Compound 3a being the R-enantiomer.

[2] = tested on: diet induced obesity (DIO) mouse; assay: Anti-obesity effect (body weight change) in diet induced obesity (DIO) mouse; conditions: for Anti-obesity effect (%): % body weight change by Equation 1; for Anti-obesity activity compared with other isomer/racemate: result in words
Experimental: Specifically, a 5- to 6-week-old female C57BL/6J mouse (Jackson Lab., USA) were purchased and fed with only high-fat fodder for at least 11 weeks to produce a diet induced obesity (DIO) mouse. Samples were exactly taken from a control and the racemic compound, the R-enantiomer (Compound 2a) and the S-enantiomer (Compound 2b) in Example 1 according to the administration dose (0, 20, and 50 mg/kg) and put into Falcon tubes, 3 ml of a 0.5% aqueous methyl cellulose solution was added thereto, and the resulting mixture was gently mixed by means of a vortex mixer. Thereafter, the mixture was homogenized by using a homogenizer (30,000 rpm, Ultra-Turrax® T10 Basic, IKA) for 3 minutes while 1.5 ml of a 0.5% aqueous methyl cellulose solution was added thereto. The sample thus prepared was administered through the oral gavage once daily for 6 weeks by using a disposable plastic syringe. The body weight was measured once a week while the DIO mouse was bred in this manner.
Based on the data thus measured, the anti-obesity effect was calculated according to the following Equation 1. Anti-obesity effect (%)={(Body weight after compound is administered)−(Body weight before compound is administered)}/(Body weight before compound is administered))×100 [Equation 1]
For the anti-obesity efficacy of the R-enantiomer (Compound 3a) and the S-enantiomer (Compound 3b) of the optically active pyranochromenylphenol compound prepared in Example 2, an experiment was performed in the same manner as in Experimental Example 1.
Based on the data thus measured, the anti-obesity effect was calculated according to Equation 1.

[3] = tested on: C57BLKS/J-db/db mice; assay: Glucose tolerance test in db/db mice; conditions: db/db mouse; for Blood sugar (mg/dl), 15 min after administration of glucose / Blood sugar (mg/dl), 30 min after administration of glucose / Blood sugar (mg/dl), 60 min after administration of glucose / Blood sugar (mg/dl), 120 min after administration of glucose / Blood sugar (mg/dl), 180 min after administration of glucose / Blood sugar (mg/dl), 240 min after administration of glucose / Blood sugar (mg/dl), 0 min after administration of glucose / AUC of blood sugar: 48th day, average; for Blood sugar (mg/dl), 15 min after administration of glucose / Blood sugar (mg/dl), 30 min after administration of glucose / Blood sugar (mg/dl), 60 min after administration of glucose / Blood sugar (mg/dl), 120 min after administration of glucose / Blood sugar (mg/dl), 180 min after administration of glucose / Blood sugar (mg/dl), 240 min after administration of glucose / Blood sugar (mg/dl), 0 min after administration of glucose: glucose 2 g/kg oral; for Blood sugar (mg/dl), 0 min after administration of glucose: before glucose; for AUC of blood sugar: glucose tolerance test 0-240 min, Phoenix WinNonlin
Experimental: as §1
While the C57BLKS/J-db/db mouse was bred, the mouse was fasted for 14 to 16 hours on the 48th day after administration, and then a glucose tolerance test was performed by orally administering glucose (Lot No: SLBM9269V, Sigma-Aldrich. USA) at a dose of 2 g/kg to the mice. Specifically, blood was collected from the caudal vein seven times in total including before the administration of glucose, at 15 minutes after the administration of glucose, at 30 minutes after the administration of glucose, at 60 minutes after the administration of glucose, at 120 minutes after the administration of glucose, at 180 minutes after the administration of glucose, and at 240 minutes after the administration of glucose. Thereafter, blood sugar was measured by using two blood sugar meters (AGM-4000, Allmedicus Inc., Korea), and then an average blood sugar was calculated by using each blood sugar measurement value. The area under the blood concentration-time curve (AUC) for the blood sugar value at each measurement time point was calculated by using a Phoenix WinNonlin program.

[4] = 50 mg/kg oral gavage once daily for 6 weeks
[5] = 200 mg/kg oral gavage once daily for 6 weeks

| SMILES | Glycated hemoglobin (HbAlc, %), before administration [1] [%] | Glycated hemoglobin (HbAlc, %), 29th day after administration [1] [%] | Glycated hemoglobin (HbAlc, %), 43rd day after administration [1] [%] | Anti-obesity effect (%) [2, 4] [%] | Anti-obesity activity compared with other isomer/racemate [2] | Anti-obesity effect (%) [2, 5] [%] | Blood sugar (mg/dl), 15 min after administration of glucose ([3]; 100 mg/kg oral once daily) [mg/dL] | Blood sugar (mg/dl), 30 min after administration of glucose ([3]; 100 mg/kg oral once daily) [mg/dL] | Blood sugar (mg/dl), 60 min after administration of glucose ([3]; 100 mg/kg oral once daily) [mg/dL] | Blood sugar (mg/dl), 120 min after administration of glucose ([3]; 100 mg/kg oral once daily) [mg/dL] | Blood sugar (mg/dl), 180 min after administration of glucose ([3]; 100 mg/kg oral once daily) [mg/dL] | Blood sugar (mg/dl), 240 min after administration of glucose ([3]; 100 mg/kg oral once daily) [mg/dL] | Blood sugar (mg/dl), 0 min after administration of glucose ([3]; 100 mg/kg oral once daily) [mg/dL] | AUC of blood sugar ([3]; 100 mg/kg oral once daily) [mg/dL/min] | also measured |
| --- | --- | --- | --- | --- | --- | --- | --- | --- | --- | --- | --- | --- | --- | --- | --- |
| CCCOc1ccc(C2COc3c(ccc4c3CCC(C)(C)O4)C2)c(O)c1 (racemic) [Compound 3, 3-(2-hydroxy-4-propoxyphenyl)-8,8-dimethyl-2,3,4,8,9,10-hexahydropyrano[2,3-f]chromene] | 4.7 | 6.7 | 6.2 | – | – | – | – | – | – | – | – | – | – | – | – |
| CCOc1ccc([C@H]2COc3c(ccc4c3CCC(C)(C)O4)C2)c(O)c1 [Compound 2b, (S)-3-(2-hydroxy-4-ethoxyphenyl)-8,8-dimethyl-2,3,4,8,9,10-hexahydropyrano[2,3-f]chromene] | – | – | – | −10.99 | better effect of suppressing an increase in body weight than the racemic compound and Compound 2a | – | – | – | – | – | – | – | – | – | – |
| CCCOc1ccc([C@@H]2COc3c(ccc4c3CCC(C)(C)O4)C2)c(O)c1 [Compound 3a, (R)-3-(2-hydroxy-4-propoxyphenyl)-8,8-dimethyl-2,3,4,8,9,10-hexahydropyrano[2,3-f]chromene] | 4.7 | 7.1 | 5.3 | – | – | −8.1 | 473 | 527 | 541 | 200 | 176 | 184 | 193 | 526 | Blood sugar (mg/dl), 15 min after administration of glucose ([3]; 150 mg/kg oral once daily): 440 mg/dL; Blood sugar (mg/dl), 30 min after administration of glucose ([3]; 150 mg/kg oral once daily): 469 mg/dL; Blood sugar (mg/dl), 60 min after administration of glucose ([3]; 150 mg/kg oral once daily): 460 mg/dL; Blood sugar (mg/dl), 120 min after administration of glucose ([3]; 150 mg/kg oral once daily): 234 mg/dL; Blood sugar (mg/dl), 180 min after administration of glucose ([3]; 150 mg/kg oral once daily): 153 mg/dL; Blood sugar (mg/dl), 240 min after administration of glucose ([3]; 150 mg/kg oral once daily): 163 mg/dL; Blood sugar (mg/dl), 0 min after administration of glucose ([3]; 150 mg/kg oral once daily): 175 mg/dL; AUC of blood sugar ([3]; 150 mg/kg oral once daily): 481 mg/dL/min; Blood sugar (mg/dl), 15 min after administration of glucose ([3]; 200 mg/kg oral once daily): 488 mg/dL; Blood sugar (mg/dl), 30 min after administration of glucose ([3]; 200 mg/kg oral once daily): 507 mg/dL; Blood sugar (mg/dl), 60 min after administration of glucose ([3]; 200 mg/kg oral once daily): 437 mg/dL; Blood sugar (mg/dl), 120 min after administration of glucose ([3]; 200 mg/kg oral once daily): 223 mg/dL; Blood sugar (mg/dl), 180 min after administration of glucose ([3]; 200 mg/kg oral once daily): 183 mg/dL; Blood sugar (mg/dl), 240 min after administration of glucose ([3]; 200 mg/kg oral once daily): 174 mg/dL; Blood sugar (mg/dl), 0 min after administration of glucose ([3]; 200 mg/kg oral once daily): 159 mg/dL; AUC of blood sugar ([3]; 200 mg/kg oral once daily): 501 mg/dL/min; Adjustment of blood sugar in glucose tolerance test, compared with other enantiomer ([3]; result in words): adjusted blood sugar well as compared to the S-enantiomer (Compound 3b) |
| CCOc1ccc(C2COc3c(ccc4c3CCC(C)(C)O4)C2)c(O)c1 (racemic) [Compound 2, 3-(2-hydroxy-4-ethoxyphenyl)-8,8-dimethyl-2,3,4,8,9,10-hexahydropyrano[2,3-f]chromene] | – | – | – | 2.29 | – | – | – | – | – | – | – | – | – | – | Anti-obesity effect (%) ([2]; 20 mg/kg oral gavage once daily for 6 weeks): 16.11% |
| CCOc1ccc([C@@H]2COc3c(ccc4c3CCC(C)(C)O4)C2)c(O)c1 [Compound 2a, (R)-3-(2-hydroxy-4-ethoxyphenyl)-8,8-dimethyl-2,3,4,8,9,10-hexahydropyrano[2,3-f]chromene] | – | – | – | 7.58 | – | – | – | – | – | – | – | – | – | – | – |
| CCCOc1ccc([C@H]2COc3c(ccc4c3CCC(C)(C)O4)C2)c(O)c1 [Compound 3b, (S)-3-(2-hydroxy-4-propoxyphenyl)-8,8-dimethyl-2,3,4,8,9,10-hexahydropyrano[2,3-f]chromene] | – | – | – | – | better anti-obesity activity than Compound 3a | −19.5 | 595 | 616 | 628 | 472 | 422 | 397 | 392 | 782 | Body weight of the mouse after administration for 6 weeks ([2]; 6 weeks, FIG. 4, result in words): close to the body weight of the normal mouse |

— patent US11332475B2, “Optically active pyranochromenyl phenol derivative and pharmaceutical composition comprising same” (GLACEUM, INC., priority 2016, dated 2022)
